The target in test [1] is Kv1.3 channel. The settings on record: whole-cell patch-clamp; mouse channels, L929 mouse fibroblast cells; read-out: Kd (published); cited from earlier work. The text has this:
Table 1 The Kap values for the complexes formed by K-ΔKv1.3 with the studied pore blockers and published data on the affinities of these blockers. | column: KTx1; ChTx; AgTx2; TEA
In general terms: Patch clamp records ionic current or voltage across a cell membrane.

Test [2] deals with K-ΔKv1.3 (N-terminally truncated human Kv1.3 tagged with mKate2) (Homo sapiens, UniProt P22001). Description: Fluorescent competitive binding assay (FCBA), displacement of A-HgTx from K-ΔKv1.3. Details: expressed in transfected cells; host or cells: HEK293 (transient transfection with pmKate2-KCNA3-del).
K-ΔKv1.3 (N-terminally truncated human Kv1.3 tagged with mKate2), sequence (P22001 53-575 limits assumed, stated change not applied): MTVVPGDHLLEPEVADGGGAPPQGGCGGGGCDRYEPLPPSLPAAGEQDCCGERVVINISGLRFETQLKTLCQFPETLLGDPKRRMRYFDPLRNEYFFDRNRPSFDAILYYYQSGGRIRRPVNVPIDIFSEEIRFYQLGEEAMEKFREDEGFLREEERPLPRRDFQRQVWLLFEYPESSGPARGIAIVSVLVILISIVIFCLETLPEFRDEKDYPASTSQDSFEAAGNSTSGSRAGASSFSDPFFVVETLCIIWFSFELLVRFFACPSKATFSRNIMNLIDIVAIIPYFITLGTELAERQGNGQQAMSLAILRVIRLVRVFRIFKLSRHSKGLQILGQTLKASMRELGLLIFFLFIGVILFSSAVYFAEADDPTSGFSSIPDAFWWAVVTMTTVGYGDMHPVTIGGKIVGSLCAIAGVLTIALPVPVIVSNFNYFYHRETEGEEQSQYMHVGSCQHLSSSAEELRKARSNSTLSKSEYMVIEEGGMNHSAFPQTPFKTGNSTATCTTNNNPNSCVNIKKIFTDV
Excerpt: To quantitatively characterize formation of complexes between A-HgTx and K-ΔKv1.3 on cell membranes, the confocal images of A-HgTx bound at the membrane of the K-ΔKv1.3 presenting cells were subjected to the treatment procedure as follows. Regions of interest (ROIs) corresponding to the plasma membranes stained with K-ΔKv1.3 were selected. Using a set of these ROIs and a threshold procedure (to null a background signal from pixels without K-ΔKv1.3 signal), the binary (0;1) mask that describes membranous localization of K-ΔKv1.3 was created. The images of K-ΔKv1.3 and A-HgTx distribution were multiplied by the corresponding mask. Next, average intensities of fluorescence of K-ΔKv1.3 (Ici) and A-HgTx (Ili) were calculated for each ROI (i.e., for each i-cell), and a ratio Ri was calculated as follows. Ri = (Ili − Ilb)/(Ici − Icb) (1) where Ilb and Icb are intensities of background signals in the fluorescent images of A-HgTx and Kv1.3 channels, respectively. Calculating Ri (i.e., normalizing A-HgTx intensity to that of K-ΔKv1.3), a correction was introduced for variations in a level of K-ΔKv1.3 expression on the membrane of particular cells. Ri values of 15–20 cells were averaged to obtain the Rav value, and a standard deviation was calculated.
Concentration of A-HgTx was 2 nM. Concentration of pore blockers C varied as indicated in the graph.
When Kd of A-HgTx and IC50 for the studied compound are known, the apparent dissociation constant Kap of complexes between the compound and channel can be calculated using the Cheng-Prusoff equation [50]:Kap = IC50/(1 + L/Kd)(4) where L is the concentration of A-HgTx in the competitive binding experiment.
In A-HgTx binding experiments, cells were incubated with A-HgTx (0.15–4 nM) for 30 min (37 °C, 5% CO2) in the complete medium. In competitive binding experiments, cells were incubated with A-HgTx (2 nM) and selected pore blocker at variable concentrations (0.5–100 nM for recombinant peptides and 1–20 mM for TEA) for 30 min (37 °C, 5% CO2) in the complete medium.
Experiments with HEK293 cells were performed with a laser scanning confocal microscope Leica-SP2 (Leica Microsystems GmbH, Wetzlar, Germany). The water-immersion 63×/1.2 NA HCX PL APO objective was used.
Fluorescence of mKate2-fused hKv1.3 was excited at the 561 nm wavelength and recorded in the 650–700 nm range. Fluorescence of A-HgTx was excited at the 488 nm wavelength and recorded in the 495–535 nm range. Distributions of A-HgTx and mKate2 fluorescence in cells were imaged using sequential scanning to avoid interference of intrinsic cellular fluorescence excited at the 488 nm with the mKate2 fluorescence.
Each experimental point in the curves describing interaction A-HgTx with mKate2-tagged Kv1.3 channels is an average over 15–25 treated images of cells. […]

For the compound `CC[N+](CC)(CC)CC` [TEA, tetraethylammonium], the Kd is 10 mM in test [1] and 2 mM in test [2] (Cheng-Prusoff from IC50, 2 nM A-HgTx, blockers 0.5–100 nM (peptides) or 1–20 mM (TEA), 30 min, 37 °C, 5% CO2, complete medium, HEK293 cells, mean ± SEM, three independent measurements, read-out: Kap, apparent dissociation constant of complexes formed by K-ΔKv1.3 with pore blocker). Moreover, in test [2] (FCBA, HEK293 cells, result in words), the “active concentration range (FCBA)” value was “active in the millimolar concentration range”. The “displacement of A-HgTx from the complexes with K-ΔKv1.3” value in test [2] (living HEK293 cells, 2 nM A-HgTx, result in words) is reported as “A-HgTx is also displaced”.

The values are drawn from paper PMC9780825, “Combining mKate2-Kv1.3 Channel and Atto488-Hongotoxin for the Studies of Peptide Pore Blockers on Living Eukaryotic Cells” (Toxins, 2022).
